From the supplement of paper PMC11061612

Assays:
[1] = tested on: HuCCT1 (Biliary Tract Carcinoma); test: combination Emax (second highest fraction inhibited in the dose matrix, 72 h); higher = more inhibition; extreme values may be limits of the assay
Outline: (§1)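 Cell lines grown in DMEM/F12 or RPMI with 10% FBS were plated in 1536-well plates and held 24 hours at 37°C, 5% CO2 before 72 hours of exposure to two-drug dose matrices, with DMSO typically at 0.2%. CellTiter-Glo 2.0 luminescence gave viability, which was converted to inhibition. Vehicle wells were set to 0 and blank wells to 1. Combination Emax is the second-highest inhibition in the matrix, and Bliss excess is the observed combination effect minus the expected EA + EB − EA·EB, where EA and EB are the single-agent effects.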

[2] = tested on: KYAE-1 (Esophageal Adenocarcinoma); test: as above
Outline: as §1

[3] = tested on: ALL-PO (B-Lymphoblastic Leukemia); test: as above
Outline: as §1

[4] = tested on: NCI-H1568 (Lung Adenocarcinoma); test: as above
Outline: as §1

[5] = tested on: OVCAR-5 (Ovarian Carcinoma); test: as above
Outline: as §1

[6] = tested on: BE-13 (T-Lymphoblastic Leukemia); test: as above
Outline: as §1

[7] = tested on: LS-123 (Colorectal Carcinoma); test: as above
Outline: as §1

[8] = tested on: NUGC-4 (Gastric Carcinoma); test: as above
Outline: as §1

[9] = tested on: HuH-7 (Hepatocellular Carcinoma); test: as above
Outline: as §1

[10] = tested on: A673 (Ewing's Sarcoma); test: as above
Outline: as §1

[11] = tested on: NCI-H209 (Small Cell Lung Carcinoma); test: as above
Outline: as §1

[12] = tested on: LOXIMVI (Melanoma); test: as above
Outline: as §1

[13] = tested on: MHH-CALL-2 (B-Lymphoblastic Leukemia); test: as above
Outline: as §1

[14] = tested on: L-428 (Hodgkin's Lymphoma); test: as above
Outline: as §1

[15] = tested on: KMRC-20 (Kidney Carcinoma); test: as above
Outline: as §1

[16] = tested on: HuCCT1 (Biliary Tract Carcinoma); test: Bliss excess, mean over the matrix (fraction); higher = more synergy
Outline: as §1

[17] = tested on: OE21 (Esophageal Squamous Cell Carcinoma); test: as above
Outline: as §1

[18] = tested on: BFTC-909 (Kidney Carcinoma); test: as above
Outline: as §1

[19] = tested on: NCI-H524 (Small Cell Lung Carcinoma); test: as above
Outline: as §1

[20] = tested on: SAS (Oral Cavity Carcinoma); test: as above
Outline: as §1
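For Bliss excess, mean over the matrix in this document: after 72 h of two-drug dosing.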

Compound	combination Emax [1]	combination Emax [2]	combination Emax [3]	combination Emax [4]	combination Emax [5]	combination Emax [6]	combination Emax [7]	combination Emax [8]	combination Emax [9]	combination Emax [10]	combination Emax [11]	combination Emax [12]	combination Emax [13]	combination Emax [14]	combination Emax [15]	Bliss excess [16]	Bliss excess [17]	Bliss excess [18]	Bliss excess [19]	Bliss excess [20]
CC1(C)CCC(CN2CCN(c3ccc(C(=O)NS(=O)(=O)c4ccc(NCC5CCOCC5)c([N+](=O)[O-])c4)c(Oc4cnc5[nH]ccc5c4)c3)CC2)=C(c2ccc(Cl)cc2)C1 [Venetoclax] + C[C@@H](Nc1cc(F)cc(F)c1)c1cc(C(=O)N(C)C)cc2c(=O)cc(N3CCOCC3)oc12 [AZD8186] (first compound max 1 µM, 7x7, partner max 3 µM)	0.185	0.554	0.703	0.0798	0.214	0.375	0.256	0.287	0.144	0.558	0.515	0.129	0.294	0.196	0.245	-0.0383	-0.0166	0.0073	-0.009	-0.0332
CC1(C)CCC(CN2CCN(c3ccc(C(=O)NS(=O)(=O)c4ccc(NCC5CCOCC5)c([N+](=O)[O-])c4)c(Oc4cnc5[nH]ccc5c4)c3)CC2)=C(c2ccc(Cl)cc2)C1 [Venetoclax] + Cc1cc2ncnn2cc1Nc1ncc2c(n1)n(C1CCOCC1)c(=O)n2C [AZD7648] (first compound max 1 µM, 7x7, partner max 10 µM)	0.284	0.176	0.613	0.135	0.339	0.529	0.313	0.232	0.221	0.597	0.642	0.254	0.17	0.215	0.288	-0.0609	-0.0076	0.0017	-0.005	-0.0055
CC1(C)CCC(CN2CCN(c3ccc(C(=O)NS(=O)(=O)c4ccc(NCC5CCOCC5)c([N+](=O)[O-])c4)c(Oc4cnc5[nH]ccc5c4)c3)CC2)=C(c2ccc(Cl)cc2)C1 [Venetoclax] + CN(C)CCCOc1ccc(-c2ccc3ncc4c(c3c2)n(C2CCOCC2)c(=O)n4C)cn1 [AZD0156] (first compound max 1 µM, 7x7, partner max 1 µM)	0.231	0.115	0.516	0.319	0.405	0.612	0.205	0.166	0.26	0.835	0.528	0.588	0.153	0.176	0.201	-0.002	-0.0165	0.0072	0.0028	-0.033
CC(=O)Nc1cccc(-n2c(=O)n(C3CC3)c(=O)c3c(Nc4ccc(I)cc4F)n(C)c(=O)c(C)c32)c1 [Trametinib] + Cc1nc(-c2cn3c(n2)-c2ccc(-c4cnn(C(C)(C)C(N)=O)c4)cc2OCC3)n(C(C)C)n1 [Taselisib] (first compound max 1 µM, 7x7, partner max 10 µM)	0.803	0.893	0.795	0.763	0.905	0.168	0.885	0.554	0.977	0.722	0.218	1	0.662	0.204	0.593	0.182	0.147	0.182	-0.112	0.145
COc1nnc2ccc(N3CCC(c4ccc(OCCN5CCN(C)C(=O)[C@H]5C)cc4)CC3)nn12 [AZD5153] + Cc1c2c(nn1C)CSCc1cc(n(C)n1)CSc1cc(c3ccccc3c1)OCCCc1c(C(=O)O)n(C)c3c-2c(Cl)ccc13 [AZD5991] (first compound max 1 µM, 7x7, partner max 1 µM)	0.495	0.0912	1	0.393	0.496	0.998	0.406	0.652	0.755	0.699	0.981	0.975	1	0.833	0.37	-0.0543	-0.0089	-0.0034	0.0723	-0.0191
CC(=O)c1c(C)c2cnc(Nc3ccc(N4CCNCC4)cn3)nc2n(C2CCCC2)c1=O [Palbociclib] + Cn1cnc2c(F)c(Nc3ccc(Br)cc3Cl)c(C(=O)NOCCO)cc21 [Selumetinib] (first compound max 10 µM, 7x7, partner max 10 µM)	0.556	0.124	0.697	0.206	0.587	0.691	0.428	0.392	0.344	0.177	0.594	0.744	0.31	0.395	0.158	0.0282	0.0877	0.0424	-0.0403	-0.0084
CC1(C)CCC(CN2CCN(c3ccc(C(=O)NS(=O)(=O)c4ccc(NCC5CCOCC5)c([N+](=O)[O-])c4)c(Oc4cnc5[nH]ccc5c4)c3)CC2)=C(c2ccc(Cl)cc2)C1 [Venetoclax] + C=CCn1c(=O)c2cnc(Nc3ccc(N4CCN(C)CC4)cc3)nc2n1-c1cccc(C(C)(C)O)n1 [AZD1775] (first compound max 1 µM, partner max 1 µM)	0.69	0.706	1	0.479	0.75	1	0.633	0.312	0.386	0.862	0.978	0.622	0.681	0.851	0.627	-0.0281	0.0095	-0.0556	0.0089	-0.0073
COc1nnc2ccc(N3CCC(c4ccc(OCCN5CCN(C)C(=O)[C@H]5C)cc4)CC3)nn12 [AZD5153] + C=CCn1c(=O)c2cnc(Nc3ccc(N4CCN(C)CC4)cc3)nc2n1-c1cccc(C(C)(C)O)n1 [AZD1775] (first compound max 1 µM, partner max 1 µM)	0.767	0.0798	0.995	0.438	0.563	1	0.546	0.641	0.682	0.602	0.912	0.892	0.742	0.918	0.694	-0.0778	-0.0497	-0.0723	-0.0337	-0.0302
Cn1cnc2c(F)c(Nc3ccc(Br)cc3Cl)c(C(=O)NOCCO)cc21 [Selumetinib] + C=CCn1c(=O)c2cnc(Nc3ccc(N4CCN(C)CC4)cc3)nc2n1-c1cccc(C(C)(C)O)n1 [AZD1775] (first compound max 10 µM, partner max 1 µM)	0.793	0.116	0.978	0.489	0.58	1	0.542	0.526	0.327	0.203	0.858	0.854	0.793	0.808	0.567	-0.0385	-0.0399	-0.0047	-0.0452	0.0324
CN(C)CCCOc1ccc(-c2ccc3ncc4c(c3c2)n(C2CCOCC2)c(=O)n4C)cn1 [AZD0156] + O=C(c1cc(Cc2n[nH]c(=O)c3ccccc23)ccc1F)N1CCN(C(=O)C2CC2)CC1 [Olaparib] (first compound max 3 µM, partner max 3 µM)	0.202	0.271	0.505	0.233	0.45	0.428	0.37	0.286	0.16	0.653	0.792	0.377	0.228	0.228	0.189	-0.0012	-0.0006	0.0705	0.179	0.0188
Cc1c2c(nn1C)CSCc1cc(n(C)n1)CSc1cc(c3ccccc3c1)OCCCc1c(C(=O)O)n(C)c3c-2c(Cl)ccc13 [AZD5991] + C1CN(CCC1(C(=O)N[C@@H](CCO)C2=CC=C(C=C2)Cl)N)C3=NC=NC4=C3C=CN4 [Capivasertib] (first compound max 1 µM, 7x7, partner max 3 µM)	0.162	0.334	1	0.191	0.215	0.38	0.281	0.215	0.208	0.421	0.36	0.313	1	0.155	0.223	-0.0405	0.0577	0.0265	0.014	-0.0165
NC1(C(=O)N[C@@H](CCO)c2ccc(Cl)cc2)CCN(c2ncnc3[nH]ccc23)CC1 [Capivasertib] + Cn1cnc2c(F)c(Nc3ccc(Br)cc3Cl)c(C(=O)NOCCO)cc21 [Selumetinib] (first compound max 10 µM, 7x7, partner max 10 µM)	0.717	0.13	0.726	0.229	0.69	0.276	0.555	0.329	0.45	0.469	0.163	0.782	0.582	0.126	0.392	0.01	0.0761	0.0531	0.0158	0.0089
NC1(C(=O)N[C@@H](CCO)c2ccc(Cl)cc2)CCN(c2ncnc3[nH]ccc23)CC1 [Capivasertib] + COc1nnc2ccc(N3CCC(c4ccc(OCCN5CCN(C)C(=O)[C@H]5C)cc4)CC3)nn12 [AZD5153] (first compound max 10 µM, 7x7, partner max 1 µM)	0.609	0.223	0.9	0.305	0.624	0.644	0.418	0.542	0.518	0.434	0.539	0.952	0.338	0.742	0.398	0.0113	0.0333	0.0433	-0.0155	-0.0524
